Experimental data from ChEMBL document CHEMBL5376026, “Design, synthesis, and antiproliferative evaluation of novel dehydroabietic acid-1,2,3-triazole-oxazolidinone hybrids” (RSC Med Chem, 2024).
Activity calls are given as the source filed them. The rule behind the calls is not given here.

Experiments:
[1] = tested on: MGC-803; assay: Induction of apoptosis in human MGC-803 cells assessed as early apoptotic cells at 10 uM incubated for 48 hrs by Annexin-V FITC and PI staining based flow cytometry (reference value: 0.20%); format: functional
[2] = tested on: MGC-803; assay: Induction of cell cycle arrest in human MGC-803 cells assessed as accumulation of cells at G0/G1 phase at 2.5 uM incubated for 48 hrs by propidium iodide staining based flow cytometry (reference value: 50.67%); format: functional
[3] = tested on: MGC-803; assay: Induction of cell cycle arrest in human MGC-803 cells assessed as accumulation of cells at G2/M phase at 2.5 uM incubated for 48 hrs by propidium iodide staining based flow cytometry (reference value: 16.81%); format: functional
[4] = tested on: MGC-803; assay: Induction of apoptosis in human MGC-803 cells assessed as viable cells at 10 uM incubated for 48 hrs by Annexin-V FITC and PI staining based flow cytometry (reference value: 98.3%); format: functional; conditions: read-out: Activity
[5] = tested on: MGC-803; assay: Induction of apoptosis in human MGC-803 cells assessed as early apoptotic cells at 2.5 uM incubated for 48 hrs by Annexin-V FITC and PI staining based flow cytometry (reference value: 0.20%); format: functional
[6] = tested on: MGC-803; assay: Induction of cell cycle arrest in human MGC-803 cells assessed as accumulation of cells at G2/M phase at 10 uM incubated for 48 hrs by propidium iodide staining based flow cytometry (reference value: 16.81%); format: functional
[7] = tested on: MGC-803; assay: Induction of apoptosis in human MGC-803 cells assessed as early apoptotic cells at 5 uM incubated for 48 hrs by Annexin-V FITC and PI staining based flow cytometry (reference value: 0.20%); format: functional
[8] = tested on: MGC-803; assay: Induction of apoptosis in human MGC-803 cells assessed as increase in apoptotic nuclei incubated for 48 hrs by Hoechst 33258 staining based fluorescence microscopic analysis; format: functional, cell-based; conditions: dose 2.5-10 µM
[9] = tested on: MGC-803; assay: Induction of cell cycle arrest in human MGC-803 cells assessed as accumulation of cells at S phase at 10 uM incubated for 48 hrs by propidium iodide staining based flow cytometry (reference value: 33.22%); format: functional
[10] = tested on: MGC-803; assay: Induction of cell cycle arrest in human MGC-803 cells assessed as accumulation of cells at G0/G1 phase at 10 uM incubated for 48 hrs by propidium iodide staining based flow cytometry (reference value: 50.67%); format: functional
[11] = tested on: HepG2; assay: Anticancer activity against human HepG2 cells assessed as inhibition of cell growth incubated for 48 hrs by MTT assay; format: functional, cell-based; conditions: HepG2, 48 h
[12] = tested on: MGC-803; assay: Induction of apoptosis in human MGC-803 cells assessed as apoptosis rate at 5 uM incubated for 48 hrs by Annexin-V FITC and PI staining based flow cytometry (reference value: 0.42%); format: functional
[13] = Cytotoxicity against human LO2 cells assessed as reduction in cell viability incubated for 48 hrs by MTT assay; format: toxicity, cell-based, L02
[14] = tested on: MGC-803; assay: Induction of apoptosis in human MGC-803 cells assessed as chromatin condensation incubated for 48 hrs by Hoechst 33258 staining based fluorescence microscopic analysis; format: functional, cell-based; conditions: dose 2.5-10 µM
[15] = tested on: HeLa; assay: Anticancer activity against human HeLa cells assessed as inhibition of cell growth incubated for 48 hrs by MTT assay; format: functional, cell-based
[16] = tested on: MGC-803; assay: Induction of reactive oxygen species generation in human MGC-803 cells at 2.5 to 10 uM incubated for 48 hrs by DCFH-DA staining based fluorescence microscopic analysis; format: functional, cell-based; conditions: dose 2.5-10 µM
[17] = tested on: MGC-803; assay: Induction of apoptosis in human MGC-803 cells assessed as necrotic cells at 2.5 uM incubated for 48 hrs by Annexin-V FITC and PI staining based flow cytometry (reference value: 0.68%); format: functional
[18] = tested on: MGC-803; assay: Induction of apoptosis in human MGC-803 cells assessed as viable cells at 2.5 uM incubated for 48 hrs by Annexin-V FITC and PI staining based flow cytometry (reference value: 98.3%); format: functional; conditions: read-out: Activity
[19] = tested on: MGC-803; assay: Induction of cell cycle arrest in human MGC-803 cells assessed as accumulation of cells at G2/M phase at 5 uM incubated for 48 hrs by propidium iodide staining based flow cytometry (reference value: 16.81%); format: functional
[20] = tested on: MGC-803; assay: Anticancer activity against human MGC-803 cells assessed as inhibition of cell growth incubated for 48 hrs by MTT assay; format: functional, cell-based; conditions: MGC-803, 48 h
[21] = tested on: MGC-803; assay: Induction of apoptosis in human MGC-803 cells assessed as necrotic cells at 5 uM incubated for 48 hrs by Annexin-V FITC and PI staining based flow cytometry (reference value: 0.68%); format: functional
[22] = tested on: MGC-803; assay: Induction of cell cycle arrest in human MGC-803 cells assessed as accumulation of cells at G0/G1 phase at 5 uM incubated for 48 hrs by propidium iodide staining based flow cytometry (reference value: 50.67%); format: functional
[23] = tested on: MGC-803; assay: Induction of mitochondrial membrane potential loss in human MGC-803 cells at 2.5 uM incubated for 10 to 24 hrs by JC-1 staining based fluorescence microscopic assay; format: functional, cell-based; conditions: time 10-24 hrs
[24] = tested on: MGC-803; assay: Induction of apoptosis in human MGC-803 cells assessed as apoptosis rate at 2.5 uM incubated for 48 hrs by Annexin-V FITC and PI staining based flow cytometry (reference value: 0.42%); format: functional
[25] = tested on: MGC-803; assay: Induction of apoptosis in human MGC-803 cells assessed as apoptosis rate at 10 uM incubated for 48 hrs by Annexin-V FITC and PI staining based flow cytometry (reference value: 0.42%); format: functional
[26] = tested on: MGC-803; assay: Induction of cell cycle arrest in human MGC-803 cells assessed as accumulation of cells at S phase at 5 uM incubated for 48 hrs by propidium iodide staining based flow cytometry (reference value: 33.22%); format: functional
[27] = tested on: MGC-803; assay: Induction of cell cycle arrest in human MGC-803 cells assessed as accumulation of cells at S phase at 2.5 uM incubated for 48 hrs by propidium iodide staining based flow cytometry (reference value: 33.22%); format: functional
[28] = tested on: MGC-803; assay: Induction of apoptosis in human MGC-803 cells assessed as necrotic cells at 10 uM incubated for 48 hrs by Annexin-V FITC and PI staining based flow cytometry (reference value: 0.68%); format: functional
[29] = tested on: MGC-803; assay: Induction of apoptosis in human MGC-803 cells assessed as late apoptotic cells at 5 uM incubated for 48 hrs by Annexin-V FITC and PI staining based flow cytometry (reference value: 0.81%); format: functional
[30] = tested on: MGC-803; assay: Induction of apoptosis in human MGC-803 cells assessed as viable cells at 5 uM incubated for 48 hrs by Annexin-V FITC and PI staining based flow cytometry (reference value: 98.3%); format: functional; conditions: read-out: Activity
[31] = tested on: MGC-803; assay: Induction of apoptosis in human MGC-803 cells assessed as late apoptotic cells at 10 uM incubated for 48 hrs by Annexin-V FITC and PI staining based flow cytometry (reference value: 0.81%); format: functional
[32] = tested on: MGC-803; assay: Induction of apoptosis in human MGC-803 cells assessed as late apoptotic cells at 2.5 uM incubated for 48 hrs by Annexin-V FITC and PI staining based flow cytometry (reference value: 0.81%); format: functional
[33] = tested on: T-24; assay: Anticancer activity against human T-24 cells assessed as inhibition of cell growth incubated for 48 hrs by MTT assay; format: functional, cell-based; conditions: T-24, 48 h

Question: For `CC(C)c1ccc2c(c1)CC[C@H]1[C@](C)(C(=O)OCc3cn(CC4CN(c5ccc(Br)cc5)C(=O)O4)nn3)CCC[C@]21C` (stereo partly drawn), which Activity [1] is on record?
Answer: 82.1%

Question: What about the Activity [2] of the same molecule?
Answer: 52.14%

Question: And the Activity [3]?
Answer: 13.7%

Question: And the viability at 10 µM [4]?
Answer: 14%

Question: And the Activity [5]?
Answer: 4.89%

Question: What about the Activity [6] of the same molecule?
Answer: 11.23%

Question: What about the Activity [7] of the same molecule?
Answer: 16.2%

Question: And the Activity [8]?
Answer: Dose-Dependent Effect

Question: What about the Activity [9] of the same molecule?
Answer: 33.22%

Question: And the Activity [10]?
Answer: 55.64%

Question: And the IC50 [11]?
Answer: 11.7 µM

Question: And the Activity [12]?
Answer: 8.87%

Question: What about the IC50 at 48 h [13] of the same molecule?
Answer: 40 µM

Question: What about the Activity [14] of the same molecule?
Answer: Dose-Dependent Effect

Question: What about the IC50 [15] of the same molecule?
Answer: 25.3 µM

Question: And the Activity [16]?
Answer: Active

Question: What about the Activity [17] of the same molecule?
Answer: 1.32%

Question: What about the viability at 2.5 µM [18] of the same molecule?
Answer: 87.5%

Question: What about the Activity [19] of the same molecule?
Answer: 12.52%

Question: And the IC50 [20]?
Answer: 3.18 µM

Question: What about the Activity [21] of the same molecule?
Answer: 2.9%

Question: And the Activity [22]?
Answer: 54.14%

Question: And the Activity [23]?
Answer: Active

Question: What about the Activity [24] of the same molecule?
Answer: 6%

Question: What about the Activity [25] of the same molecule?
Answer: 33.34%

Question: What about the Activity [26] of the same molecule?
Answer: 33.63%

Question: What about the Activity [27] of the same molecule?
Answer: 34.79%

Question: And the Activity [28]?
Answer: 1.25%

Question: And the Activity [29]?
Answer: 12%

Question: What about the viability at 5 µM [30] of the same molecule?
Answer: 68.8%

Question: And the Activity [31]?
Answer: 2.64%

Question: And the Activity [32]?
Answer: 6.25%

Question: And the IC50 [33]?
Answer: 14.2 µM
